Here are results for two compounds from patent US7611863B2, “Selective staining of biomembranes using voltage-sensitive dyes” (Max-Planck-Gesellschaft zur Foerderung der Wissenschaften …, priority 2004, dated 2009).

The target of assay [1] is alkaline phosphatase from the human placenta (PLAP) (Homo sapiens, UniProt P05187). Kind of assay: Enzymatic dye hydrolysis (HPLC, isothermal titration calorimetry). The assay is classed as biochemical. The protocol: Enzyme kinetics with ITC. We performed enzyme kinetic measurements with Di-4-ASPP phosphate as a substrate of PLAP by isothermal titration calorimetry (ITC). We used Tris-NaCl buffer (20 mM Tris, 100 mM NaCl, pH 8.1) without Zn^2+ and Mg^2+ although most alkaline phosphatases depend on these metals for maximum activity. However, divalent cations bind to lipid membranes and induce their aggregation and fusion^25. The pH-value is a compromise between optimal enzymatic activity (at pH 9.8) and compatibility with vesicles and cells. The microcalorimeter (VP-ITC, Microcal, Northampton, Mass., USA) was thermostatted to 25.0° C., with reference power set to 10 μcal/sec and a stirring speed of 310 rpm. The sample cell contained a PLAP solution of 0.19 DEA Units/ml activity and the syringe was filled with a 1 mM solution of Di-4-ASPP phosphate. The reference cell contained buffer only. Different amounts of dye were injected into the sample cell in separate experiments to cover a concentration range from 2 μM to 15 μM. To determine the heats of dilution alone, injections were carried out with pure buffer. For both hydrolysis and dilution, the baseline signal was approximated by linear or polynomial functions and subtracted from the raw signal resulting in a curve with a flat baseline. The dilution signal was subtracted from the signal of the enzymatic reaction to yield the final calorimeter tracing of enzymatic hydrolysis. The molar heat of reaction was obtained by integration. The initial velocities were determined from the average heat of reaction of the first 10 to 30 seconds after the onset of the reaction, using the mean molar heat of reaction as a proportionality constant. […]
Enzymatic dye hydrolysis. […] We evaluated the heat production per unit time that is proportional to the reaction rate, with the molar heat of reaction being the constant of proportionality^38. […] By calibration with that energy, the initial reaction velocity was evaluated.

The nature of assay [2]: Enzyme induced staining of liposomes. It is filed as biochemical. The conditions noted are these: 100 μM lipid; 0.43 μM and 4.31 μM substrate. Here is the method:
Enzyme induced staining of liposomes. We studied enzymatic hydrolysis of Di-4-ASPP phosphate in the presence of large unilamellar POPC vesicles (LUVs) to observe enzyme induced staining. Tris-NaCl Buffer was used for the preparation of all solutions. To 550 μl of a 200 μM solution of POPC vesicles in a cuvette, an equal volume of Di-4-ASPP phosphate was added to yield concentrations between 0.1 μM and 10.7 μM. 10 μl of PLAP (18.6 DEA Units/ml) were added and the suspension was mixed by pipetting. The cuvette was held at 25° C. Fluorescence (excitation 488 nm, emission 600 nm) was recorded before and after addition of the enzyme with a resolution of 1 sec. Initial velocities were determined from the slope of the first 10 to 20 seconds of the fluorescence traces.
Enzyme Induced staining of liposomes. Now, we combined the two previous experiments. The dye phosphate was hydrolysed by phosphatase in the presence of lipid vesicles. The reaction was observed by the enhancement of fluorescence due to the enhanced binding of the dye alcohol to the lipid. The fluorescence intensity of a vesicle suspension (100 μM lipid) was recorded before and after the addition of the phosphatase with 0.43 μM and 4.31 μM Di-4-ASPP phosphate. […] This corresponds to the ratio of the fluorescence lipid titration data of alcohol and phosphate at 100 μM lipid.

Assay [3] relates to Madine Darby Canine Kidney (MDCK) cells. Kind of assay: Enzyme induced staining of transiently transfected MDCK cells. The assay is classed as cell-based. The settings on record: 200 nM. Here is the method:
FIG. 19. Genetically Targeted Staining of MDCK cells with Di-10P-ASPBS and Di-12P-ASPBS. (A) Cells were cotransfected with the membrane-bound phosphatase construct termed ArtPlasMA AP and H2B-GFP, a nucleus-localized transfection marker. Brightfield image and fluorescence images before (−1 sec) and after addition of 200 nM Di-10P-ASPBS. (B) Analogous to row A, but using 200 nM Di-12P-ASPBS. (C) Control experiment. Cells were transfected only with H2B-GFP and incubated with 200 nM Di-12P-ASPBS. Brightfield image and fluorescence images before (−1 sec) and after addition of dye (8 min). (D) Control experiment. Cells were cotransfected with the membrane-bound phosphatase construct termed ArtPlasMA AP and H2B-GFP and incubated with the dye Di-10A-ASPBS. Brightfield image and fluorescence image before (−1 sec) and after addition of dye (20 sec).
Two control experiments were performed: In the first control, cells were transfected only with the transfection marker H2B-GFP. […] In addition, no difference in staining intensity between transfected and untransfected cells can be discerned (FIG. 19C). In the second control experiment, cells were cotransfected with the phosphatase construct and the transfection marker.

Sequence of alkaline phosphatase from the human placenta (PLAP) (P05187 23-506): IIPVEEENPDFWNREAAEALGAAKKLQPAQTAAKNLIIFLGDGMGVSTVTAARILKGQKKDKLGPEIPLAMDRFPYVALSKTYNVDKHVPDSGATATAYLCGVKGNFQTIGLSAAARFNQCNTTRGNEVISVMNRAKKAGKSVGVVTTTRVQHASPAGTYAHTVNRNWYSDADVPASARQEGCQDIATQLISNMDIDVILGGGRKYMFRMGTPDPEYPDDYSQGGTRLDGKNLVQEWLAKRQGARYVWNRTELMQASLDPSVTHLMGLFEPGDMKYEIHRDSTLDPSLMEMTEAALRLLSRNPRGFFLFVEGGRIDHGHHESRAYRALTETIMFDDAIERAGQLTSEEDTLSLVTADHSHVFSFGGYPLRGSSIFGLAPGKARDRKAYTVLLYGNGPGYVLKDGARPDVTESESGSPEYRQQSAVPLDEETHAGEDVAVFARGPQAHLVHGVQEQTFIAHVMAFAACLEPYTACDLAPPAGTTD

With `CCCCN(CCCC)c1ccc(/C=C/c2cc[n+](CCCOP(=O)([O-])O)cc2)cc1` [Di-4-ASPP phosphate], in assay [1] (ITC kinetics), the “acceptance as substrate by PLAP” value is given as “accepted by PLAP as a regular substrate”. Moreover, the “molar heat of hydrolysis (endothermal)” value in assay [1] (ITC, 25.0° C., Tris-NaCl pH 8.1) is 1.1 ± 0.2 kJ/mol. For the same compound, the “conversion by soluble PLAP (HPLC analysis)” value in assay [1] (after incubation, enzyme removed by ultrafiltration) is “quantitatively converted to Di-4-ASPP alcohol”. In assay [2], the “enhancement of fluorescence intensity of vesicle suspension after addition of phosphatase” value is given as “about sixfold”.

Di-12-phosphato-ASPBS [Di-12P-ASPBS]: the “staining of directly adjacent cells” value in assay [3] (after 10 minutes incubation) is “Directly adjacent cells are weakly stained”. In assay [3] (cells cotransfected with ArtPlasMA AP and H2B-GFP), the “localization of staining over several minutes” value is listed as “Staining is well localized even after 10 minutes incubation”. In addition, in assay [3] (transfected only with H2B-GFP), the “staining of control cells without phosphatase” value is given as “only weakly stained”.
